Laboratory results as given in patent US20210213104A1, “GLUCAGON AND GLP-1 CO-AGONISTS FOR THE TREATMENT OF CHRONIC KIDNEY DISEASE AND DIABETIC KIDNEY DISEASE IN TYPE 2 DIABETES” (MEDIMMUNE LIMITED, priority 2020, published 2021).
Values joined by “and” are separate entries in the source; they are usually repeats but may differ in a detail not shown here. Equal entries are not always repeated.

How the values were obtained:
Format in all cases: in vivo, human
[1] = system: subjects with T2DM and renal impairment; test: Phase 2a: anti-drug antibody (ADA) screening assay
Experimental: Blood samples were collected to evaluate anti-drug antibody (ADA) response to Cotadutide. A screening assay in the form of a traditional ligand-binding “birding” assay using electrochemiluminescence was used to determine ADA-positive samples.
Development of ADA and titres (in any subjects testing positive) were assessed (As-treated population). No subjects tested positive for ADA at baseline. A total of 2 subjects (4.9%) were ADA positive post-baseline (both subjects [9.5%] in the Cotadutide dose group). […] 1 subject was ADA positive at Day 12 (titer ≤5) but negative at subsequent visits. One subject was ADA positive at Day 32 (titer=2560) and remained positive at the Day 60 follow-up visit (titer=160); at 6 months after their last visit; the antibody titer was 10, and therefore, no additional follow-up was deemed necessary for this subject.

[2] = system: subjects with T2DM and renal impairment; test: Phase 2a: urine albumin:creatinine ratio (UACR); details: for UACR Relative Change from Baseline to End of Dosing (vs. Placebo): subjects with mean UACR > 3 mg/mmol at baseline (micro- or macroalbuminuria), 1-exponential of fold change
Experimental: (§1) Cotadutide was titrated from 50 μg up to 300 μg and administered once daily by subcutaneous (SC) injection over 32 days.
(§2) Cotadutide was administered at 50 μg once daily for 4 days, followed by 100 μg daily for 7 days, 200 μg daily for 7 days, and 300 μg daily for 14 days (n=20). Placebo was administered one daily for 32 days (n=20). Cotadutide and placebo were administered in the morning. Dosing commenced following predose baseline vital signs, blood tests (including HbA1c), an electrocardiogram (ECG), body weight measurement, and bioimpedance spectroscopy (BIS). Subjects then returned for daily dosing or remained overnight locally until Day 5, and thereafter, had visits at weekly intervals until a maintenance dose of 300 μg was established. Thus, Cotadutide or placebo was administered at the study site by study personal for the first four doses and on site on Days 5, 12, 19, and 32. At all other times, subjects preformed dosing at home.
Mean urine albumin:creatinine ratio (UACR) was lower in the Cotadutide dose group compared to placebo from Day 19 until the end of dosing, and for 8 days into the follow-up period.

[3] = system: subjects with T2DM and renal impairment; test: Phase 2a: mixed-meal tolerance test (MMTT) plasma glucose AUC; details: for MMTT plasma glucose AUC4 h, LS Mean % Change / MMTT plasma glucose AUC4 h, Difference in LS Mean % Change (vs Placebo) / Percent Change from Baseline in MMTT plasma glucose AUC4 h, Mean / Percent Change from Baseline in MMTT plasma glucose AUC4 h, Median: Day −5 to Day 32; for MMTT plasma glucose AUC4 h, LS Mean % Change: ANCOVA; for MMTT plasma glucose AUC4 h, LS Mean % Change / MMTT plasma glucose AUC4 h, Difference in LS Mean % Change (vs Placebo) / Percent Change from Baseline in MMTT plasma glucose AUC4 h, Mean / Percent Change from Baseline in MMTT plasma glucose AUC4 h, Median / MMTT plasma glucose AUC4 h, Day 32, Mean / MMTT plasma glucose AUC4 h, Day 32, Median: ITT
Experimental: as §1, §2
The effect of Cotadutide titrated up to a dose level of 300 μg on glucose control vs placebo after 32 days of treatment was assessed by a standardized mixed-meal tolerance test (MMTT) to determine the percentage change in glucose from area under the concentration-time curve (AUC) from baseline (Day −5) to the end of 32 days of treatment.
Following a minimum 8-hour fast, the subject underwent an MMTT, which involved the consumption of a standardized liquid meal (Ensure Plus, a nutritional supplement containing the components of fat, carbohydrate, and protein, which make up a standard MMTT) within 15 minutes, and timed serial blood samples were obtained for measurement of glucose through 240 minutes after consumption of the standardized meal (with no additional food intake during this time). Blood was drawn within 15 minutes before consuming the standardized liquid meal (i.e., “0 minutes”), and at 15, 30, 45, 60, 90, 120, 180, and 240 minutes (±5 minutes) after consumption. Blood sampling occurred as close as possible to the specified times for the MMTT. At Day 32, the serial blood sampling begins 2.5 hours after Cotadutide or placebo administration.
Subjects who used a quick acting or pre-mixed form of insulin with breakfast received their usual/current dose of breakfast-time insulin with the Ensure Plus milkshake i.e., dose reduction of insulin was not required. Subjects who carbohydrate counted or varied insulin dose in relation to meal type were advised that the Ensure Plus milkshake contained approximately 44.4 g of carbohydrate, 10.8 g of fat, and 13.8 g of protein and to adjust their insulin dose on this basis. The timing of insulin administration in relation to the Ensure Plus milkshake consumption was in accordance with the usual regimen used by the subject, e.g., if a subject injected insulin 30 minutes before breakfast, they were to inject insulin 30 minutes before the Ensure Plus milkshake.
The investigators also considered whether a dose reduction in insulin and/or sulfonylurea or glitinide was required for this fasting assessment on Day 32.
The change in the mixed-meal tolerance test (MMTT) plasma glucose AUC from the baseline (Day −5) to end of 32 days of treatment was evaluated in the ITT population using an analysis of covariance (ANCOVA) model. The model included fixed effect of treatment and baseline AUC as a covariate. The difference of the percent change in glucose AUC between the two treatment arms was compared with a two-sided significance level of 0.10.

[4] = subjects with mean UACR > 3 mg/mmol at baseline
[5] = subjects with mean UACR > 3 mg/mmol at baseline, ITT

CCCCCCCCCCCCCCCC(=O)N[C@@H](CCC(=O)NCCCC[C@H](NC(=O)[C@H](CC(=O)O)NC(=O)[C@H](CO)NC(=O)[C@@H](NC(=O)[C@H](Cc1ccccc1)NC(=O)[C@@H](NC(=O)CNC(=O)[C@H](CCC(N)=O)NC(=O)[C@H](CO)NC(=O)[C@@H](N)Cc1c[nH]cn1)[C@@H](C)O)[C@@H](C)O)C(=O)N[C@@H](CO)C(=O)N[C@@H](CCC(=O)O)C(=O)N[C@@H](Cc1ccc(O)cc1)C(=O)N[C@@H](CC(C)C)C(=O)N[C@@H](CC(=O)O)C(=O)N[C@@H](CO)C(=O)N[C@@H](CCC(=O)O)C(=O)N[C@@H](CCCNC(=N)N)C(=O)N[C@@H](C)C(=O)N[C@@H](CCCNC(=N)N)C(=O)N[C@@H](CC(=O)O)C(=O)N[C@@H](Cc1ccccc1)C(=O)N[C@H](C(=O)N[C@@H](C)C(=O)N[C@@H](Cc1c[nH]c2ccccc12)C(=O)N[C@@H](CC(C)C)C(=O)N[C@@H](CCC(=O)O)C(=O)N[C@@H](C)C(=O)NCC(=O)NCC(=O)O)C(C)C)C(=O)O [Cotadutide]
ADA titer, one subject ([1]; 6 months after last visit): 10
subjects ADA positive post-baseline, number ([1]; As-treated population): 2 subjects
subjects ADA positive post-baseline, percentage of dose group ([1]; As-treated population): 9.5%
ADA titer, one subject ([1]; Day 12, negative at subsequent visits): ≤ 5
ADA titer, one subject ([1]; Day 32): 2560
ADA titer, one subject ([1]; Day 60 follow-up visit): 160
treatment-boosted ADA ([1]; baseline titer boosted 4-fold or higher): No subjects
Urine Albumin/Creatinine, End of Dosing (Day 33), Mean ([2]; Total, ITT): 10.06 mg/mmol
Urine Albumin/Creatinine, End of Dosing (Day 33), Median ([2]; Total, ITT): 2.00 mg/mmol
UACR LS Mean Change ([2]; baseline to Day 33, ANCOVA, Total, ITT): -3.05 mg/mmol
UACR Change from Baseline, Mean ([2]; baseline to Day 33, Total, ITT): -3.05 mg/mmol
UACR Change from Baseline, Median ([2]; baseline to Day 33, Total, ITT): -0.60 mg/mmol
UACR Difference in LS Mean Change (vs Placebo) ([2]; baseline to Day 33, Total, ITT): -5.07 mg/mmol
Fold Change in Log-Transformed UACR (vs. Placebo) ([2]; baseline to end of dosing, subjects with mean UACR > 3 mg/mmol at baseline): −0.70
UACR Geometric Mean (end of dosing relative to baseline) [2, 4]: 0.511
UACR Geometric Mean Ratio (vs. Placebo) [2, 4]: 0.4945
UACR Relative Change from Baseline to End of Dosing (vs. Placebo) [2]: 50.6%
UACR Relative Change from Baseline to End of Dosing (vs. Placebo) ([2]; listed as MEDI0382): 50.55%
Log-transformed UACR, End of Dosing (Day 33), Mean [2, 5]: 1.767
Log-transformed UACR, End of Dosing (Day 33), Median [2, 5]: 1.253
MMTT plasma glucose AUC4 h, LS Mean % Change ([3]; Insulin Dose < 20 U/day): −27.16%
MMTT plasma glucose AUC4 h, LS Mean % Change ([3]; Insulin Dose ≥ 20 U/day): −25.313%
MMTT plasma glucose AUC4 h, LS Mean % Change ([3]; Total): −26.71% and −26.7%
MMTT plasma glucose AUC4 h, LS Mean % Change ([3]; Total, listed as MEDI0382): −26.71%
MMTT plasma glucose AUC4 h, LS Mean % Change ([3]; eGFR 30-44 mL/min/1.73 m^2): −27.59%
MMTT plasma glucose AUC4 h, LS Mean % Change ([3]; eGFR 45-59 mL/min/1.73 m^2): −27.95%
MMTT plasma glucose AUC4 h, Difference in LS Mean % Change (vs Placebo) ([3]; Insulin Dose < 20 U/day): −36.37%
Percent Change from Baseline in MMTT plasma glucose AUC4 h, Mean ([3]; Insulin Dose < 20 U/day): −31.99%
Percent Change from Baseline in MMTT plasma glucose AUC4 h, Median ([3]; Insulin Dose < 20 U/day): −36.99%
MMTT plasma glucose AUC4 h, Difference in LS Mean % Change (vs Placebo) ([3]; Insulin Dose ≥ 20 U/day): −25.751%
Percent Change from Baseline in MMTT plasma glucose AUC4 h, Mean ([3]; Insulin Dose ≥ 20 U/day): −25.00%
Percent Change from Baseline in MMTT plasma glucose AUC4 h, Median ([3]; Insulin Dose ≥ 20 U/day): −22.850%
MMTT plasma glucose AUC4 h, Difference in LS Mean % Change (vs Placebo) ([3]; Total): −30.38%
Percent Change from Baseline in MMTT plasma glucose AUC4 h, Mean ([3]; Total): −27.719%
Percent Change from Baseline in MMTT plasma glucose AUC4 h, Median ([3]; Total): −27.45%
MMTT plasma glucose AUC4 h, Difference in LS Mean % Change (vs Placebo) ([3]; eGFR 30-44 mL/min/1.73 m^2): −31.64%
Percent Change from Baseline in MMTT plasma glucose AUC4 h, Mean ([3]; eGFR 30-44 mL/min/1.73 m^2): −24.41%
Percent Change from Baseline in MMTT plasma glucose AUC4 h, Median ([3]; eGFR 30-44 mL/min/1.73 m^2): −22.90%
MMTT plasma glucose AUC4 h, Difference in LS Mean % Change (vs Placebo) ([3]; eGFR 45-59 mL/min/1.73 m^2): −32.87%
Percent Change from Baseline in MMTT plasma glucose AUC4 h, Mean ([3]; eGFR 45-59 mL/min/1.73 m^2): −29.83%
Percent Change from Baseline in MMTT plasma glucose AUC4 h, Median ([3]; eGFR 45-59 mL/min/1.73 m^2): −37.00%
MMTT plasma glucose AUC4 h, Day 32, Mean ([3]; Insulin Dose < 20 U/day): 594.85 mg·h/dL
MMTT plasma glucose AUC4 h, Day 32, Median ([3]; Insulin Dose < 20 U/day): 599.41 mg·h/dL
MMTT plasma glucose AUC4 h, Day 32, Mean ([3]; Insulin Dose ≥ 20 U/day): 679.23 mg·h/dL
MMTT plasma glucose AUC4 h, Day 32, Median ([3]; Insulin Dose ≥ 20 U/day): 700.08 mg·h/dL
MMTT plasma glucose AUC4 h, Day 32, Mean ([3]; Total): 646.42 mg·h/dL
MMTT plasma glucose AUC4 h, Day 32, Median ([3]; Total): 619.33 mg·h/dL
MMTT plasma glucose AUC4 h, Day 32, Mean ([3]; eGFR 30-44 mL/min/1.73 m^2): 618.21 mg·h/dL
MMTT plasma glucose AUC4 h, Day 32, Median ([3]; eGFR 30-44 mL/min/1.73 m^2): 700.10 mg·h/dL
MMTT plasma glucose AUC4 h, Day 32, Mean ([3]; eGFR 45-59 mL/min/1.73 m^2): 664.37 mg·h/dL
MMTT plasma glucose AUC4 h, Day 32, Median ([3]; eGFR 45-59 mL/min/1.73 m^2): 605.70 mg·h/dL
postprandial plasma glucose concentrations on Day 32 ([3]; pre-standardized liquid meal to 180 minutes post meal): lower than placebo
